Data on one compound can be found in ChEMBL document CHEMBL5131386, “Synthesis and biological evaluation of novel schisanhenol derivatives as potential hepatoprotective agents” (Eur J Med Chem, 2022).

Calls of active or inactive are those of the source. The calls are words filed in the database; no cut-off is given here.

Assay [1] concerns L02. The assay can be described thus: Hepatoprotective activity against concanavalin A induced liver injury in human HL7702 cells assessed as cell survival rate at 5 uM preincubated for 12 hrs followed by concanavalin A stimulation for 12 hrs by MTT assay (reference value: 51.37%). It is filed as functional. As to conditions: time 24 hrs, read-out: Survival. A general note: Tetrazolium assays rely on reduction of a dye to a coloured formazan, in cell work by metabolically active cells.

Assay [2] concerns L02. The assay can be described thus: Hepatoprotective activity against concanavalin A induced livery injury in human HL7702 assessed as decrease in IL-6 expression level at 5 uM preincubated for 24 hrs followed by concanavalin A stimulation for 12 hrs by ELISA assay. It is filed as functional, cell-based. As to conditions: time 36.0 hrs. On the technique in general: ELISA stands for enzyme-linked immunosorbent assay.

Assay [3] concerns Mus musculus. The assay can be described thus: Hepatoprotective activity against concanavalin A induced C57BL/6 mouse livery injury model assessed as decrease in cleaved caspase 3 level at 150 mg/kg, ip once daily for 2 weeks followed by concanavalin A stimulation and measured after 12 hrs by Western blot analysis. It is filed as functional, organism-based.
Assay [4] has as its system Mus musculus. The assay can be described thus: Hepatoprotective activity against concanavalin A induced C57BL/6 mouse livery injury model assessed as decrease in JAK2 phosphorylation level at 150 mg/kg, ip once daily for 2 weeks followed by concanavalin A stimulation and measured after 12 hrs by Western blot analysis. It is filed as functional, organism-based. For orientation: A western blot detects proteins with antibodies after separation by electrophoresis.

For assay [5], the system named is Mus musculus. Briefly: Hepatoprotective activity against concanavalin A induced C57BL/6 mouse livery injury model assessed as decrease in STAT3 phosphorylation level at 150 mg/kg, ip once daily for 2 weeks followed by concanavalin A stimulation and measured after 12 hrs by Western blot analysis. It is filed as functional, organism-based.
Assay [6] concerns Mus musculus. Briefly: Hepatoprotective activity against concanavalin A induced C57BL/6 mouse livery injury model assessed as decrease in serum ALT level at 150 mg/kg, ip once daily for 2 weeks followed by concanavalin A stimulation and measured after 12 hrs. It is filed as functional, organism-based.
For assay [7], the system named is Mus musculus. Briefly: Hepatoprotective activity against concanavalin A induced C57BL/6 mouse livery injury model assessed as decrease in phosphorylated STAT3 level in liver at 150 mg/kg, ip once daily for 2 weeks followed by concanavalin A stimulation and measured after 12 hrs by DAB staining based immunohistological anlaysis. It is filed as functional, organism-based.

The test system of assay [8] is L02. Briefly: Hepatoprotective activity against concanavalin A induced livery injury in human HL7702 assessed as decrease in IL-6 expression level at 5 uM preincubated for 12 hrs followed by concanavalin A stimulation for 12 hrs by Western blot analysis. The following applies: time 24.0 hrs. It is filed as functional, cell-based.
Assay [9] has as its system Mus musculus. The assay can be described thus: Hepatoprotective activity against concanavalin A induced C57BL/6 mouse livery injury model assessed as increase in Bcl-2 level at 150 mg/kg, ip once daily for 2 weeks followed by concanavalin A stimulation and measured after 12 hrs by Western blot analysis. It is filed as functional, organism-based.
Assay [10] relates to Mus musculus. Briefly: Hepatoprotective activity against concanavalin A induced C57BL/6 mouse livery injury model assessed as decrease in severity of liver damage at 150 mg/kg, ip once daily for 2 weeks followed by concanavalin A stimulation and measured after 12 hrs by H&E staining based […]. It is filed as functional, organism-based.
For assay [11], the system named is Mus musculus. The assay can be described thus: Hepatoprotective activity against concanavalin A induced C57BL/6 mouse livery injury model assessed as decrease in cleaved caspase-3 level in liver at 150 mg/kg, ip once daily for 2 weeks followed by concanavalin A stimulation and measured after 12 hrs by DAB staining based immunohistological anlaysis. It is filed as functional, organism-based.

The subject of assay [12] is Mus musculus. Briefly: Hepatoprotective activity against concanavalin A induced C57BL/6 mouse livery injury model assessed as decrease in Bax level at 150 mg/kg, ip once daily for 2 weeks followed by concanavalin A stimulation and measured after 12 hrs by Western blot analysis. It is filed as functional, organism-based.
Assay [13] concerns Mus musculus. The assay can be described thus: Hepatoprotective activity against concanavalin A induced C57BL/6 mouse livery injury model assessed as decrease in serum AST level at 150 mg/kg, ip once daily for 2 weeks followed by concanavalin A stimulation and measured after 12 hrs. It is filed as functional, organism-based.
In assay [14] the test system is Mus musculus. The assay can be described thus: Hepatoprotective activity against concanavalin A induced C57BL/6 mouse livery injury model assessed as decrease in serum IL-6 level at 150 mg/kg, ip once daily for 2 weeks followed by concanavalin A stimulation and measured after 12 hrs by ELISA. It is filed as functional, organism-based.

In the case of `COC(=O)c1ccc(-c2ccc(C(=O)OC)cc2)cc1` [BIPHENYL DIMETHYL DICARBOXYLATE], the viability at 5 µM in [1] was determined as 63.9%. Further, the outcome in assay [2], in assay [3], in assay [4], in assay [5], in [6] and in assay [7] was Active. Further, the outcome in assay [8], in assay [9], in assay [10], in [11], in assay [12] and in [13] was Active. Besides, the outcome in assay [14] was Active.
